The results in this text go back to the NIST ThermoML archive (doi:10.1016/j.fluid.2010.10.008).

This data set is described as follows: activity coefficient (dimensionless); of the first substance listed, at infinite dilution; xn = mol fraction of the nth substance listed. Conditions: Liquid, Chromatography, x1 = 0.

± gives the expanded uncertainty stated by the source.

Take `COCCOC` [1,2-dimethoxyethane] + CCn1cc[n+](C)c1.CS(=O)(=O)[O-]: the activity coefficient is 5.58 ± 0.38 (318.15 K); 5.62 ± 0.38 (323.15 K); 5.69 ± 0.39 (333.15 K); 5.75 ± 0.39 (343.15 K); 5.8 ± 0.4 (353.15 K).

As to `Cc1cccc(C)c1` [1,3-dimethylbenzene] + CCn1cc[n+](C)c1.CS(=O)(=O)[O-], the activity coefficient was found to be 20.8 ± 2.2 (318.15 K); 20.5 ± 2.2 (323.15 K); 19.9 ± 2.1 (333.15 K); 19.3 ± 2 (343.15 K); 18.8 ± 2 (353.15 K).

Consider `FC(F)(F)C(Cl)Br` (stereo not given) [1-bromo-1-chloro-2,2,2-trifluoroethane] + CCn1cc[n+](C)c1.CS(=O)(=O)[O-], for which the activity coefficient is, setting by setting: (318.15 K) 0.586 ± 0.042; (323.15 K) 0.632 ± 0.044; (333.15 K) 0.739 ± 0.049; (343.15 K) 0.843 ± 0.054; (353.15 K) 0.96 ± 0.06.

Consider `COC(C)(C)C` [2-methoxy-2-methylpropane] + CCn1cc[n+](C)c1.CS(=O)(=O)[O-], for which the activity coefficient is, setting by setting: (318.15 K) 34.6 ± 2.4; (323.15 K) 33.8 ± 2.3; (333.15 K) 32.6 ± 2.2; (343.15 K) 31.8 ± 2.2; (353.15 K) 30.9 ± 2.1.

As to `CC(C)=O` [acetone] + CCn1cc[n+](C)c1.CS(=O)(=O)[O-], the activity coefficient by setting is: (318.15 K) 2.46 ± 0.17; (323.15 K) 2.47 ± 0.17; (333.15 K) 2.47 ± 0.17; (343.15 K) 2.48 ± 0.17; (353.15 K) 2.49 ± 0.17.

With `CC#N` [acetonitrile] + CCn1cc[n+](C)c1.CS(=O)(=O)[O-], the activity coefficient by setting is: (318.15 K) 0.862 ± 0.055; (323.15 K) 0.873 ± 0.056; (333.15 K) 0.887 ± 0.056; (343.15 K) 0.9 ± 0.057; (353.15 K) 0.912 ± 0.058.

Take `c1ccccc1` [benzene] + CCn1cc[n+](C)c1.CS(=O)(=O)[O-]: the activity coefficient amounted to 4.51 ± 0.47 (318.15 K); 4.5 ± 0.47 (323.15 K); 4.48 ± 0.47 (333.15 K); 4.48 ± 0.47 (343.15 K); 4.46 ± 0.47 (353.15 K).

Regarding `CCC(C)=O` [butanone] + CCn1cc[n+](C)c1.CS(=O)(=O)[O-], the activity coefficient is 4.48 ± 0.31 (318.15 K); 4.46 ± 0.3 (323.15 K); 4.48 ± 0.31 (333.15 K); 4.41 ± 0.3 (343.15 K); 4.38 ± 0.3 (353.15 K).

For `C1CCCCC1` [cyclohexane] + CCn1cc[n+](C)c1.CS(=O)(=O)[O-], the activity coefficient reads like this: (318.15 K) 123 ± 13; (323.15 K) 115 ± 12; (333.15 K) 103 ± 11; (343.15 K) 93.2 ± 9.8; (353.15 K) 84.3 ± 8.9.

Take `ClCCl` [dichloromethane] + CCn1cc[n+](C)c1.CS(=O)(=O)[O-]: the activity coefficient was 0.7 ± 0.047 (318.15 K); 0.727 ± 0.048 (323.15 K); 0.78 ± 0.051 (333.15 K); 0.833 ± 0.054 (343.15 K); 0.887 ± 0.056 (353.15 K).

Consider `CC(C)OC(C)C` [diisopropyl ether] + CCn1cc[n+](C)c1.CS(=O)(=O)[O-], for which the activity coefficient is, setting by setting: (318.15 K) 127 ± 26; (323.15 K) 122 ± 25; (333.15 K) 114 ± 23; (343.15 K) 107 ± 22; (353.15 K) 101 ± 20.

In the case of `COC(=O)OC` [dimethyl carbonate] + CCn1cc[n+](C)c1.CS(=O)(=O)[O-], the activity coefficient runs as follows: (318.15 K) 3.18 ± 0.22; (323.15 K) 3.17 ± 0.22; (333.15 K) 3.16 ± 0.22; (343.15 K) 3.15 ± 0.21; (353.15 K) 3.14 ± 0.21.

Take `CCO` [ethanol] + CCn1cc[n+](C)c1.CS(=O)(=O)[O-]: the activity coefficient (318.15 K) amounted to 0.513 ± 0.038; the activity coefficient (323.15 K) was found to be 0.509 ± 0.038; the activity coefficient (333.15 K) was found to be 0.501 ± 0.038; the activity coefficient (343.15 K) is 0.496 ± 0.038; the activity coefficient (353.15 K) amounted to 0.493 ± 0.038.

Turning to `CCOC(C)=O` [ethyl acetate] + CCn1cc[n+](C)c1.CS(=O)(=O)[O-], the activity coefficient is, setting by setting: (318.15 K) 7.32 ± 0.5; (323.15 K) 7.29 ± 0.5; (333.15 K) 7.22 ± 0.49; (343.15 K) 7.17 ± 0.49; (353.15 K) 7.12 ± 0.49.

For `CCc1ccccc1` [ethylbenzene] + CCn1cc[n+](C)c1.CS(=O)(=O)[O-], the activity coefficient (318.15 K) is 19.1 ± 2; the activity coefficient (323.15 K) was found to be 18.8 ± 2; the activity coefficient (333.15 K) was 18.3 ± 1.9; the activity coefficient (343.15 K) was 17.8 ± 1.9; the activity coefficient (353.15 K) came to 17.3 ± 1.8.

`CCC1CCCCC1` [ethylcyclohexane] + CCn1cc[n+](C)c1.CS(=O)(=O)[O-]: the activity coefficient is, setting by setting: (318.15 K) 344 ± 36; (323.15 K) 326 ± 34; (333.15 K) 291 ± 31; (343.15 K) 262 ± 28; (353.15 K) 237 ± 25.

Consider `CCCCCCC` [heptane] + CCn1cc[n+](C)c1.CS(=O)(=O)[O-], for which the activity coefficient reads like this: (318.15 K) 637 ± 130; (323.15 K) 596 ± 120; (333.15 K) 523 ± 110; (343.15 K) 471 ± 96; (353.15 K) 422 ± 86.

With `CO` [methanol] + CCn1cc[n+](C)c1.CS(=O)(=O)[O-], the activity coefficient turned out to be 0.238 ± 0.029 (318.15 K); 0.239 ± 0.029 (323.15 K); 0.242 ± 0.03 (333.15 K); 0.244 ± 0.03 (343.15 K); 0.247 ± 0.03 (353.15 K).

In the case of `COC(C)=O` [methyl ethanoate] + CCn1cc[n+](C)c1.CS(=O)(=O)[O-], the activity coefficient is, setting by setting: (318.15 K) 3.59 ± 0.24; (323.15 K) 3.6 ± 0.25; (333.15 K) 3.61 ± 0.25; (343.15 K) 3.63 ± 0.25; (353.15 K) 3.66 ± 0.25.

For `CC1CCCCC1` [methylcyclohexane] + CCn1cc[n+](C)c1.CS(=O)(=O)[O-], the activity coefficient was found to be 211 ± 22 (318.15 K); 198 ± 21 (323.15 K); 177 ± 19 (333.15 K); 160 ± 17 (343.15 K); 147 ± 16 (353.15 K).

In the case of `C[N+](=O)[O-]` [nitromethane] + CCn1cc[n+](C)c1.CS(=O)(=O)[O-], the activity coefficient (318.15 K) amounted to 0.612 ± 0.043; the activity coefficient (323.15 K) stood at 0.621 ± 0.043; the activity coefficient (333.15 K) was 0.638 ± 0.044; the activity coefficient (343.15 K) turned out to be 0.653 ± 0.045; the activity coefficient (353.15 K) is 0.668 ± 0.045.

Turning to `C=CCCCCCC` [oct-1-ene] + CCn1cc[n+](C)c1.CS(=O)(=O)[O-], the activity coefficient is 374 ± 26 (318.15 K); 356 ± 24 (323.15 K); 325 ± 22 (333.15 K); 300 ± 21 (343.15 K); 277 ± 19 (353.15 K).

As to `CCCCCCCC` [octane] + CCn1cc[n+](C)c1.CS(=O)(=O)[O-], the activity coefficient is 1020 ± 110 (318.15 K); 949 ± 100 (323.15 K); 839 ± 89 (333.15 K); 752 ± 79 (343.15 K); 676 ± 71 (353.15 K).

`CCCO` [propan-1-ol] + CCn1cc[n+](C)c1.CS(=O)(=O)[O-]: the activity coefficient reads like this: (318.15 K) 0.801 ± 0.052; (323.15 K) 0.789 ± 0.051; (333.15 K) 0.771 ± 0.05; (343.15 K) 0.754 ± 0.05; (353.15 K) 0.742 ± 0.049.

`CC(C)O` [propan-2-ol] + CCn1cc[n+](C)c1.CS(=O)(=O)[O-]: the activity coefficient is, setting by setting: (318.15 K) 0.974 ± 0.061; (323.15 K) 0.958 ± 0.06; (333.15 K) 0.933 ± 0.059; (343.15 K) 0.913 ± 0.058; (353.15 K) 0.9 ± 0.057.

For the compound `ClC(Cl)(Cl)Cl` [tetrachloromethane] + CCn1cc[n+](C)c1.CS(=O)(=O)[O-], the activity coefficient reads like this: (318.15 K) 4.93 ± 0.34; (323.15 K) 5.08 ± 0.35; (333.15 K) 5.36 ± 0.37; (343.15 K) 5.62 ± 0.38; (353.15 K) 5.87 ± 0.4.

For `C1CCOC1` [tetrahydrofuran] + CCn1cc[n+](C)c1.CS(=O)(=O)[O-], the activity coefficient runs as follows: (318.15 K) 5.37 ± 0.37; (323.15 K) 5.33 ± 0.36; (333.15 K) 5.24 ± 0.36; (343.15 K) 5.18 ± 0.35; (353.15 K) 5.1 ± 0.35.

With `c1ccsc1` [thiophene] + CCn1cc[n+](C)c1.CS(=O)(=O)[O-], the activity coefficient is, setting by setting: (318.15 K) 2.04 ± 0.14; (323.15 K) 2.06 ± 0.14; (333.15 K) 2.11 ± 0.14; (343.15 K) 2.16 ± 0.15; (353.15 K) 2.2 ± 0.15.

Take `Cc1ccccc1` [toluene] + CCn1cc[n+](C)c1.CS(=O)(=O)[O-]: the activity coefficient was 9.41 ± 0.99 (318.15 K); 9.37 ± 0.99 (323.15 K); 9.23 ± 0.97 (333.15 K); 9.12 ± 0.96 (343.15 K); 9 ± 0.95 (353.15 K).

As to `ClC(Cl)Cl` [trichloromethane] + CCn1cc[n+](C)c1.CS(=O)(=O)[O-], the activity coefficient reads like this: (318.15 K) 0.488 ± 0.037; (323.15 K) 0.515 ± 0.038; (333.15 K) 0.572 ± 0.041; (343.15 K) 0.633 ± 0.044; (353.15 K) 0.694 ± 0.047.
